# Measurements reported in ChEMBL document CHEMBL1130817, “Sulfonamide derivatives of benzylamine block cholesterol biosynthesis in HepG2 cells: a new type of potent squalene epoxidase inhibitors” (Bioorg Med Chem Lett, 1998).
# pIC50: −log10 of the molar value.
# How the values were obtained:
# [1] = molecular target: Squalene monooxygenase (Homo sapiens, UniProt Q14534); assay: In vitro inhibition of cholesterol biosynthesis in human HepG2 cells.; type: functional, cell-based
# [2] = molecular target: Squalene monooxygenase (Rattus norvegicus) (UniProt P52020); assay: Compound was evaluated in vivo for the inhibition of rat squalene epoxidase […]; Inactive; type: organism-based
# Squalene monooxygenase (Rattus norvegicus), sequence (P52020 whole entry, looked up): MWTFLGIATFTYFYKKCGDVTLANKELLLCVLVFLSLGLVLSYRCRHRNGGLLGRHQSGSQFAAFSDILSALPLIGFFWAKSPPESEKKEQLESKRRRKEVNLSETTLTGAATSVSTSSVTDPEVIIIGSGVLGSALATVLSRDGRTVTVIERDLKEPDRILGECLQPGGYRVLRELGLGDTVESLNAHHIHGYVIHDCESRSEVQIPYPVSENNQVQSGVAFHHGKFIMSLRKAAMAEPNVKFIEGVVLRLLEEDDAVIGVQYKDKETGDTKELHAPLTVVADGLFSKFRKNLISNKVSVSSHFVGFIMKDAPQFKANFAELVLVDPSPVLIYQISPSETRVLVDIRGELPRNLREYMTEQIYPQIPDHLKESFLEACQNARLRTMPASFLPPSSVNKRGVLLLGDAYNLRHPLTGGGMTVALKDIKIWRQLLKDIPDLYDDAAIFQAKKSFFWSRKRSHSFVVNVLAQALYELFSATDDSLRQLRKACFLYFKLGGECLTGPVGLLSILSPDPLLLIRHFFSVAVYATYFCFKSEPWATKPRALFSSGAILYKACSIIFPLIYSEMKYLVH
# [3] = molecular target: Squalene monooxygenase (Rattus norvegicus, UniProt P52020); assay: In vitro inhibition of rat liver squalene epoxidase […]; type: cell-based
# Squalene monooxygenase (Rattus norvegicus, UniProt P52020), sequence (P52020 whole entry): as the sequence (P52020 whole entry, looked up) above
# [4] = molecular target: Squalene monooxygenase (Rattus norvegicus) (UniProt P52020); assay: Compound was evaluated in vivo for the inhibition of rat mammalian squalene epoxidase […]; type: organism-based
# Squalene monooxygenase (Homo sapiens, UniProt Q14534), sequence (Q14534 whole entry): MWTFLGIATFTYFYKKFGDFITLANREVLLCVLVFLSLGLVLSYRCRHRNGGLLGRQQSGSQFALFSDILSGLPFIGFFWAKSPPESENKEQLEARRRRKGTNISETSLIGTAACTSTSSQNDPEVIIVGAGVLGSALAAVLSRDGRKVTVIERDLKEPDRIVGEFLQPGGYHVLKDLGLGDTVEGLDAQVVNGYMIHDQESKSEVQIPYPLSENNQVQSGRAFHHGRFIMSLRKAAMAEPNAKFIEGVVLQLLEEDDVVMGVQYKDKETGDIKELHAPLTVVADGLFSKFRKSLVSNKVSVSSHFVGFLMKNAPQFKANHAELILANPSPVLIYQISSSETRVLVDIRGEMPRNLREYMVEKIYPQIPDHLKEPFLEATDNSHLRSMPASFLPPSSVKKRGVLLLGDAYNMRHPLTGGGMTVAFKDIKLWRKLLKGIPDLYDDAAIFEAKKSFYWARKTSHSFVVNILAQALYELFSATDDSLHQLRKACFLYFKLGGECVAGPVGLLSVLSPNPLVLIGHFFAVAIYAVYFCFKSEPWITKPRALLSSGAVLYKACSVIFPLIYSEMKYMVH
Compound,pIC50 [1],further results
CCN(C/C=C/C#CC(C)(C)C)Cc1cccc(OCCCS(=O)(=O)c2cccs2)c1,6.54,
CCN(C/C=C/C#CC(C)(C)C)Cc1cccc(OCCN(C)S(=O)(=O)c2cc3ccccc3s2)c1,5.74,
CCN(C/C=C/C#CC(C)(C)C)Cc1cccc(OCCN(C)S(=O)(=O)c2ccc(F)cc2)c1,6.59,
CCN(C/C=C/C#CC(C)(C)C)Cc1cccc(OCCN(C)S(=O)(=O)c2ccsc2)c1,6.60,
CCN(C/C=C/C#CC(C)(C)C)Cc1cccc(OCCN(C)S(=O)(=O)c2ccc(Br)cc2)c1,6.48,
CCN(C/C=C/C#CC(C)(C)C)Cc1cccc(OCCN(C)S(=O)(=O)c2ccc(-c3cccs3)s2)c1,5.00,
CCN(C/C=C/C#CC(C)(C)C)Cc1cccc(OCCN(C)S(=O)(=O)c2ccc(Br)s2)c1,6.41,
CCN(C/C=C/C#CC(C)(C)C)Cc1cccc(OCCNS(=O)(=O)c2cccs2)c1,6.35,
CCN(C/C=C/C#CC(C)(C)C)Cc1cccc(OCCN(C)S(=O)(=O)c2cc(Br)cs2)c1,6.52,
CCN(C/C=C/C#CC(C)(C)C)Cc1cccc(OCCCN(C)S(=O)(=O)c2cccs2)c1,5.19,
CCN(C/C=C/C#CC(C)(C)C)Cc1cccc(OCc2cc(-c3ccsc3)cs2)c1,,ED50 [4]: 2.5 mg/kg

# Continued, in another order:
pIC50 [1],Compound,further results
7.22,CCN(C/C=C/C#CC(C)(C)C)Cc1cccc(OCCN(C)S(=O)(=O)c2cccs2)c1,ED50 [2]: 40 mg/kg; pIC50 [3]: 5.22
6.64,CCN(C/C=C/C#CC(C)(C)C)Cc1cccc(OCCN(C2CC2)S(=O)(=O)c2cccs2)c1,
7.05,CCN(C/C=C/C#CC(C)(C)C)Cc1cccc(OCCN(C)S(=O)(=O)c2cc(-c3ccsc3)cs2)c1,
6.77,CCN(C/C=C/C#CC(C)(C)C)Cc1cccc(OCCN(C)S(=O)(=O)c2nccs2)c1,
7.05,CCN(C/C=C/C#CC(C)(C)C)Cc1cccc(OCCN(CC)S(=O)(=O)c2cccs2)c1,
6.68,CCN(C/C=C/C#CC(C)(C)C)Cc1cccc(OCCN(C)S(=O)(=O)c2ccc(-c3ccsc3)s2)c1,
6.77,CCCN(CCOc1cccc(CN(CC)C/C=C/C#CC(C)(C)C)c1)S(=O)(=O)c1cccs1,
6.82,CCN(C/C=C/C#CC(C)(C)C)Cc1cccc(OCCN(C)S(=O)(=O)c2cccnc2)c1,
6.70,CCN(C/C=C/C#CC(C)(C)C)Cc1cccc(OCCN(C)S(=O)(=O)c2ccc(C#N)cc2)c1,
6.70,CCN(C/C=C/C#CC(C)(C)C)Cc1cccc(OCCN(C)S(=O)(=O)Cc2cccs2)c1,
